# Patent US10065972B2, “Bicyclic or tricyclic heterocyclic compound” (MITSUBISHI TANABE PHARMA CORPORATION, priority 2014, dated 2018)
# Counter-ions that a name gives are not always drawn.
# Molecular target: human recombinant KAT-II (Homo sapiens (Human), UniProt Q8N5Z0)
# Assay: KAT-II inhibitory test
# Format: biochemical
# Conditions: 3.0 μmol/L kynurenine, 37° C., 1 hr, pH 8.0; kynurenic acid quantified by HPLC
# Protocol: The compounds described in the above-mentioned Examples were used for the KAT-II inhibitory test.
# Preparation of Human Recombinant KAT-II
# Human recombinant KAT-II was prepared as follows.
# His tag and maltose binding protein tag were added to the N-terminal of a gene encoding human KAT-II (Genbank accession number: AF481738.1), and the obtained gene was incorporated into pET32 (Merck Nihon Millipore), which is an Escherichia coli expression vector. Human recombinant KAT-II produced by BL21(DE3) Escherichia coli (Merck Nihon Millipore, 69450) transformed using the plasmid was purified using an amylose resin column (New England Biolabs, #800-21 L).
# The inhibitory action of the test compound on human recombinant KAT-II was determined by the following method.
# To a reaction mixture (45 μL) containing 3.0 μmol/L kynurenine, 10 μmol/L pyridoxal phosphate, 2.0 ng/μL human recombinant KAT-II, and 150 mmol/L tris(hydroxymethyl)aminomethane-acetate buffer (pH 8.0) was added a 10% dimethyl sulfoxide solution (5 μL) of each test compound prepared, and the mixture was reacted at 37° C. for 1 hr. After the reaction, 50% trichloroacetic acid (5 μL) was added to terminate the reaction.
# The resultant kynurenic acid was quantified as follows by high performance liquid chromatography. An enzyme reaction mixture was separated by an octadecylsilane reversed-phase column (SC-50DS, Eicom Corporation; mobile phase: 250 mmol/L zinc acetate, 50 mmol/L sodium acetate, and 5.0% acetonitrile (pH 6.2)) incubated at 30° C., and kynurenic acid was quantified using a fluorescence detector (RF-20Axs, Shimadzu Corporation) at excitation wavelength 354 nm, detection wavelength 460 nm. The analytical curve was drawn every time by an external standard method. Each test compound was tested by dual measurement at each concentration.
# human recombinant KAT-II, sequence (Q8N5Z0 30-425): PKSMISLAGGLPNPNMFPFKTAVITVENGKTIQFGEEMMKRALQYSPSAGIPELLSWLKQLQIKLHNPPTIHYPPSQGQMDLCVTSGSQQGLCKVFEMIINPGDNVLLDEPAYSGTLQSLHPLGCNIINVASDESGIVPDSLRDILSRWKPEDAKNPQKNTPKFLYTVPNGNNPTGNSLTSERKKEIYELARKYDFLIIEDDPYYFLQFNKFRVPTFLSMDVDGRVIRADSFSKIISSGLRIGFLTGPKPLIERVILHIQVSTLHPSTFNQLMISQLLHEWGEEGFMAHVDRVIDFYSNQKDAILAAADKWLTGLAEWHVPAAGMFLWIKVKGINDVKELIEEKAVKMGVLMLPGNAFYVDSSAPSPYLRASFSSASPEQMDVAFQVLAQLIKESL
row,Compound,IC50
1,"Cc1nc2sc(N3CCC[C@@H]3C(=O)NCc3ccccc3)nn2c(=O)c1C1=CCOCC1 [Example 698, (R)-N-benzyl-1-[6-(3,6-dihydro-2H-pyran-4-yl)-7-methyl-5-oxo-5H-[1,3,4]thiadiazolo[3,2-a]pyrimidin-2-yl]pyrrolidine-2-carboxamide]",67 nM
2,"CC1(c2nc3sc([C@H]4CCCN4C(=O)Oc4ccccc4)nc3c(=O)[nH]2)COC1 [Example 116, (R)-2-[5-(3-methyloxetan-3-yl)-7-oxo-6,7-dihydro[1,3]thiazolo[5,4-d]pyrimidin-2-yl]pyrrolidine-1-carboxylic acid phenyl ester]",14 nM
3,"CCc1nc2sc([C@H]3CCCN3C(=O)Oc3ccccc3)nc2c(=O)n1Cc1ccc(OC)cc1OC [Example 111, (R)-2-[6-(2,4-dimethoxybenzyl)-5-ethyl-7-oxo-6,7-dihydro[1,3]thiazolo[5,4-d]pyrimidin-2-yl]pyrrolidine-1-carboxylic acid phenyl ester]",270 nM
4,"CC(C)c1cc(=O)n2nc(N3CCC[C@@H]3C(=O)NCc3ccccn3)sc2n1 [Example 653, (R)-1-[5-oxo-7-(propan-2-yl)-5H-[1,3,4]thiadiazolo[3,2-a]pyrimidin-2-yl]-N-[(pyridin-2-yl)methyl]pyrrolidine-2-carboxamide]",190 nM
5,"Cc1cccc(OC(=O)N2CCC[C@@H]2c2nc3c(=O)n(C)c(C4CCOCC4)nc3s2)c1 [Example 36, (R)-2-[6-methyl-7-oxo-5-(tetrahydro-2H-pyran-4-yl)-6,7-dihydro[1,3]thiazolo[5,4-d]pyrimidin-2-yl]pyrrolidine-1-carboxylic acid 3-methylphenyl ester]",18 nM
6,"CCn1nc(C2CC2)c2sc(N3CCC[C@@H]3C(=O)NCc3ccccc3)nc2c1=O [Example 614, (R)-N-benzyl-1-(7-cyclopropyl-5-ethyl-4-oxo-4,5-dihydro[1,3]thiazolo[4,5-d]pyridazin-2-yl)pyrrolidine-2-carboxamide]",16 nM
7,"O=C(Oc1ccccc1)N1CCC[C@@H]1c1nc2c(=O)[nH]c(OCC(F)(F)F)nc2s1 [Example 105, (R)-2-[7-oxo-5-(2,2,2-trifluoroethoxy)-6,7-dihydro[1,3]thiazolo[5,4-d]pyrimidin-2-yl]pyrrolidine-1-carboxylic acid phenyl ester]",65 nM
8,"CCOC1(c2cc3sc(N4CCC[C@@H]4C(=O)NCc4ccccc4)nc3c(=O)[nH]2)CC1 [Example 629, (R)-N-benzyl-1-[6-(1-ethoxycyclopropyl)-4-oxo-4,5-dihydro[1,3]thiazolo[4,5-c]pyridin-2-yl]pyrrolidine-2-carboxamide]",47 nM
9,"O=C(NCc1ccccc1)[C@H]1CCCN1c1ccc2nc(-c3ccccc3F)[nH]c(=O)c2n1 [Example 713, (R)-N-benzyl-1-[2-(2-fluorophenyl)-4-oxo-3,4-dihydropyrido[3,2-d]pyrimidin-6-yl]pyrrolidine-2-carboxamide]",88 nM
10,"Cn1c(C(F)(F)c2ccccn2)nc2sc(N3CCC[C@@H]3C(=O)NCc3ccccc3)nc2c1=O [Example 273, (R)-N-benzyl-1-{5-[difluoro(pyridin-2-yl)methyl]-6-methyl-7-oxo-6,7-dihydro[1,3]thiazolo[5,4-d]pyrimidin-2-yl}pyrrolidine-2-carboxamide]",5.6 nM
11,"CN(C)CCn1c(C(F)(F)F)nc2sc(N3CCC[C@@H]3C(=O)NCc3ccccc3)nc2c1=O [Example 372, (R)-N-benzyl-1-{6-[2-(N′,N′-dimethylamino)ethyl]-7-oxo-5-trifluoromethyl-6,7-dihydro[1,3]thiazolo[5,4-d]pyrimidin-2-yl}pyrrolidine-2-carboxamide]",39 nM
12,"Cn1c(C2(C#N)CC2)nc2sc(N3CCC[C@@H]3C(=O)NCc3ccccc3)nc2c1=O [Example 573, (R)-N-benzyl-1-[5-(1-cyanocyclopropyl)-6-methyl-7-oxo-6,7-dihydro[1,3]thiazolo[5,4-d]pyrimidin-2-yl]pyrrolidine-2-carboxamide]",35 nM
13,"CCc1cc(=O)n2nc(N3CCOC[C@@H]3C(=O)NCc3ccccc3)sc2n1 [Example 645, (R)-N-benzyl-4-(7-ethyl-5-oxo-5H-[1,3,4]thiadiazolo[3,2-a]pyrimidin-2-yl)morpholine-3-carboxamide]",1600 nM
14,"Cc1cccc(OC(=O)N2CCC[C@@H]2c2nc3c(=O)[nH]c(C4(C#N)CC4)nc3s2)c1 [Example 94, (R)-2-[5-(1-cyanocyclopropyl)-7-oxo-6,7-dihydro[1,3]thiazolo[5,4-d]pyrimidin-2-yl]pyrrolidine-1-carboxylic acid 3-methylphenyl ester]",6.1 nM
15,"CN(CCn1c(C(F)(F)F)nc2sc(N3CCC[C@@H]3C(=O)NCc3ccccc3)nc2c1=O)CC(F)(F)F [Example 373, (R)-N-benzyl-1-[6-{2-[N′-methyl-N′-(2,2,2-trifluoroethyl)amino]ethyl}-7-oxo-5-trifluoromethyl-6,7-dihydro[1,3]thiazolo[5,4-d]pyrimidin-2-yl]pyrrolidine-2-carboxamide hydrochloride]",8 nM
16,"Cn1c(-c2c(F)cccc2F)nc2sc(N3CCC[C@@H]3C(=O)NCc3ccccc3)nc2c1=O [Example 204, (R)-N-benzyl-1-[5-(2,6-difluorophenyl)-6-methyl-7-oxo-6,7-dihydro[1,3]thiazolo[5,4-d]pyrimidin-2-yl]pyrrolidine-2-carboxamide]",7 nM
17,"CC(C)(O)c1nc2sc(N3CCC[C@@H]3C(=O)NCc3ccccc3)nc2c(=O)[nH]1 [Example 606, (R)-N-benzyl-1-[5-(2-hydroxypropan-2-yl)-7-oxo-6,7-dihydro[1,3]thiazolo[5,4-d]pyrimidin-2-yl]pyrrolidine-2-carboxamide]",7.6 nM
18,"Cn1c(C2CCOCC2)nc2sc(N3CCC[C@@H]3C(=O)NCc3ccccc3)nc2c1=O [Example 259, (R)-N-benzyl-1-[6-methyl-7-oxo-5-(tetrahydro-2H-pyran-4-yl)-6,7-dihydro[1,3]thiazolo[5,4-d]pyrimidin-2-yl]pyrrolidine-2-carboxamide]",4.3 nM
19,"O=C(NCc1ccccc1)[C@H]1CCCN1c1nc2c(=O)[nH]c(C(F)(F)c3ccccc3)nc2s1 [Example 524, (R)-N-benzyl-1-{5-[difluoro(phenyl)methyl]-7-oxo-6,7-dihydro[1,3]thiazolo[5,4-d]pyrimidin-2-yl}pyrrolidine-2-carboxamide]",4 nM
20,"O=C(NCc1ccccc1)[C@H]1CCCN1c1nn2c(=O)cc(C(F)(F)F)nc2s1 [Example 642, (R)-N-benzyl-1-(5-oxo-7-trifluoromethyl-5H-[1,3,4]thiadiazolo[3,2-a]pyrimidin-2-yl)pyrrolidine-2-carboxamide]",78 nM
21,"CN1CCn2c1nc1sc(N3CCC[C@@H]3C(=O)NCc3ccccc3)nc1c2=O [Example 602, (R)-N-benzyl-1-(5-methyl-9-oxo-5,6,7,9-tetrahydroimidazo[1,2-a][1,3]thiazolo[5,4-d]pyrimidin-2-yl)pyrrolidine-2-carboxamide]",31 nM
22,"CC(C)c1cc(=O)n2nc([C@H]3CCCN3C(=O)Oc3ccc(F)cc3)sc2n1 [Example 140, (R)-2-[5-oxo-7-(propan-2-yl)-5H-[1,3,4]thiadiazolo[3,2-a]pyrimidin-2-yl]pyrrolidine-1-carboxylic acid 4-fluorophenyl ester]",77 nM
23,"CCc1nc2sc(N3CCC[C@@H]3C(=O)COc3ccccc3)nc2c(=O)n1C [Example 575, 5-ethyl-6-methyl-2-[(R)-2-(2-phenoxyacetyl)pyrrolidin-1-yl][1,3]thiazolo[5,4-d]pyrimidin-7(6H)-one]",19 nM
24,"CCn1c(C(F)F)nc2sc(N3CCC[C@@H]3C(=O)NCc3cc(C)nn3C)nc2c1=O [Example 313, (R)-1-(5-difluoromethyl-6-ethyl-7-oxo-6,7-dihydro-[1,3]thiazolo[5,4-d]pyrimidin-2-yl)-N-[(2,5-dimethyl-2H-pyrazol-3-yl)methyl]pyrrolidine-2-carboxamide]",1100 nM
25,"CCc1nc2sc(N3CCC[C@@H]3C(=O)NCc3ncccn3)nn2c(=O)c1F [Example 684, (R)-1-(7-ethyl-6-fluoro-5-oxo-5H-[1,3,4]thiadiazolo[3,2-a]pyrimidin-2-yl)-N-[(pyrimidin-2-yl)methyl]pyrrolidine-2-carboxamide]",11000 nM
26,"CCCc1cc(=O)n2nc(N3CCC[C@@H]3C(=O)NC3(c4ccccc4)CC3)ccc2n1 [Example 718, (R)-1-(4-oxo-2-propyl-4H-pyrimido[1,2-b]pyridazin-7-yl)-N-(1-phenylcyclopropyl)pyrrolidine-2-carboxamide]",310 nM
27,"Cn1c(-c2c(F)cc(F)cc2F)nc2sc(N3CCC[C@@H]3C(=O)NCc3ccccc3)nc2c1=O [Example 203, (R)-N-benzyl-1-[6-methyl-7-oxo-5-(2,4,6-trifluorophenyl)-6,7-dihydro[1,3]thiazolo[5,4-d]pyrimidin-2-yl]pyrrolidine-2-carboxamide]",14 nM
28,"Cc1noc(-c2nc3sc(N4CCC[C@@H]4C(=O)NCc4ccccc4)nc3c(=O)n2CC(F)F)n1 [Example 221, (R)-N-benzyl-1-[6-(2,2-difluoroethyl)-5-(3-methyl-1,2,4-oxadiazol-5-yl)-7-oxo-6,7-dihydro[1,3]thiazolo[5,4-d]pyrimidin-2-yl]pyrrolidine-2-carboxamide]",4.8 nM
